Experiments:
Assay type in all cases: cell-based, mouse
[1] = system: α7 integrin (LacZ reporter in α7βgal+/− myoblasts); test: Myoblast α7+/LacZ integrin FDG assay (Burkin assay in myoblasts, 96-well); details: 96-well; for Burkin Assay in Myoblasts, value relative to DMSO: SU9516 analogs, N=3-6; for Burkin Assay in Myoblasts, signal relative to DMSO: α7+/LacZ myoblasts
[2] = system: α7 integrin (LacZ reporter in α7+/LacZ myotubes); test: Myotube α7 integrin FDG assay (Burkin assay in myotubes, 96-well); details: for Burkin Assay in Myotubes, value relative to DMSO: SU9516 analogs, 96-well, N=3-6
[3] = system: β-galactosidase in CMV-LacZ C2C12 myoblasts; test: CMV-LacZ secondary screen in C2C12 myoblasts (β-Gal stabilizing assay); details: for CMV-LACZ in Myoblasts, value relative to DMSO: SU9516 analogs, C2C12 CMV-LacZ, N=2; for CMV-LACZ in Myoblasts (β-galactosidase activity relative to DMSO): CMV-LacZ C2C12 myoblasts
Summary of the method: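 β-gal stabilization was measured in C2C12 myoblasts or myotubes stably transfected with a CMV-driven LacZ construct, using the FDG β-gal assay. Compounds were tested in dose-response at 0.5, 1, 5, 10, 20 and 40 μM, with two replicates per point.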

[4] = system: β-galactosidase in CMV-LacZ C2C12 myotubes; test: CMV-LacZ secondary screen in C2C12 myotubes (β-Gal stabilizing assay); details: for CMV-LACZ in Myotubes, value relative to DMSO: SU9516 analogs, C2C12 CMV-LacZ, N=2; for CMV-LACZ in Myotubes, signal relative to DMSO: C2C12 CMV-LacZ myotubes, fold relative to DMSO
Summary of the method: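 Dose-response runs at 0.5–40 μM (0.5, 1, 5, 10, 20, 40 μM; N=2 per point) used a clonal C2C12 line carrying CMV-LacZ. Cells were assayed as myoblasts or as differentiated myotubes, and β-galactosidase levels were read with the FDG fluorogenic substrate.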

CCOc1cc2c3c(c1)C(C)=CC(C)(C)N3C(=O)C2=O [MLS000710233-01]
Burkin Assay in Myoblasts, value relative to DMSO ([1]; 0.5 uM): 1.17
Burkin Assay in Myoblasts, value relative to DMSO ([1]; 1 uM): 1.159
Burkin Assay in Myoblasts, value relative to DMSO ([1]; 5 uM): 0.8066
Burkin Assay in Myoblasts, value relative to DMSO ([1]; 10 uM): 0.5637
Burkin Assay in Myoblasts, value relative to DMSO ([1]; 20 uM): 0.1723
Burkin Assay in Myoblasts, value relative to DMSO ([1]; 40 uM): 0.1743
Burkin Assay in Myotubes, value relative to DMSO ([2]; 0.5 uM): 1.11
Burkin Assay in Myotubes, value relative to DMSO ([2]; 1 uM): 1.033
Burkin Assay in Myotubes, value relative to DMSO ([2]; 5 uM): 0.9331
Burkin Assay in Myotubes, value relative to DMSO ([2]; 10 uM): 0.8688
Burkin Assay in Myotubes, value relative to DMSO ([2]; 20 uM): 0.6933
Burkin Assay in Myotubes, value relative to DMSO ([2]; 40 uM): 0.6295
CMV-LACZ in Myoblasts, value relative to DMSO ([3]; 0.5 uM): 1.0173
CMV-LACZ in Myoblasts, value relative to DMSO ([3]; 1 uM): 0.8263
CMV-LACZ in Myoblasts, value relative to DMSO ([3]; 5 uM): 0.8263
CMV-LACZ in Myoblasts, value relative to DMSO ([3]; 10 uM): 0.8509
CMV-LACZ in Myoblasts, value relative to DMSO ([3]; 20 uM): 0.8530
CMV-LACZ in Myoblasts, value relative to DMSO ([3]; 40 uM): 0.8779
CMV-LACZ in Myotubes, value relative to DMSO ([4]; 0.5 uM): 0.8781
CMV-LACZ in Myotubes, value relative to DMSO ([4]; 1 uM): 0.9410
CMV-LACZ in Myotubes, value relative to DMSO ([4]; 5 uM): 0.9060
CMV-LACZ in Myotubes, value relative to DMSO ([4]; 10 uM): 1.0698
CMV-LACZ in Myotubes, value relative to DMSO ([4]; 20 uM): 1.1130
CMV-LACZ in Myotubes, value relative to DMSO ([4]; 40 uM): 1.1380

Cc1cccc(NCC(=O)N/N=C\c2ccccn2)c1 [MLS000710288-01]
Burkin Assay in Myoblasts, signal relative to DMSO ([1]; 0.5 uM): 1.168
Burkin Assay in Myoblasts, signal relative to DMSO ([1]; 1 uM): 1.305
Burkin Assay in Myoblasts, signal relative to DMSO ([1]; 5 uM): 1.3928
Burkin Assay in Myoblasts, signal relative to DMSO ([1]; 10 uM): 1.1778
Burkin Assay in Myoblasts, signal relative to DMSO ([1]; 20 uM): 0.8681
Burkin Assay in Myoblasts, signal relative to DMSO ([1]; 40 uM): 0.5963
Burkin Assay in Myotubes, α7 integrin LacZ reporter signal relative to DMSO ([2]; 0.5 uM): 1.076
Burkin Assay in Myotubes, α7 integrin LacZ reporter signal relative to DMSO ([2]; 1 uM): 0.9575
Burkin Assay in Myotubes, α7 integrin LacZ reporter signal relative to DMSO ([2]; 5 uM): 1.084
Burkin Assay in Myotubes, α7 integrin LacZ reporter signal relative to DMSO ([2]; 10 uM): 0.9598
Burkin Assay in Myotubes, α7 integrin LacZ reporter signal relative to DMSO ([2]; 20 uM): 1.024
Burkin Assay in Myotubes, α7 integrin LacZ reporter signal relative to DMSO ([2]; 40 uM): 0.8202
CMV-LACZ in Myoblasts (β-galactosidase activity relative to DMSO) ([3]; 0.5 uM): 1.0338
CMV-LACZ in Myoblasts (β-galactosidase activity relative to DMSO) ([3]; 1 uM): 0.9325
CMV-LACZ in Myoblasts (β-galactosidase activity relative to DMSO) ([3]; 5 uM): 1.0737
CMV-LACZ in Myoblasts (β-galactosidase activity relative to DMSO) ([3]; 10 uM): 1.2515
CMV-LACZ in Myoblasts (β-galactosidase activity relative to DMSO) ([3]; 20 uM): 1.1193
CMV-LACZ in Myoblasts (β-galactosidase activity relative to DMSO) ([3]; 40 uM): 0.9063
CMV-LACZ in Myotubes, signal relative to DMSO ([4]; 0.5 uM): 1.0371
CMV-LACZ in Myotubes, signal relative to DMSO ([4]; 1 uM): 1.1133
CMV-LACZ in Myotubes, signal relative to DMSO ([4]; 5 uM): 1.0717
CMV-LACZ in Myotubes, signal relative to DMSO ([4]; 10 uM): 1.1225
CMV-LACZ in Myotubes, signal relative to DMSO ([4]; 20 uM): 0.9400
CMV-LACZ in Myotubes, signal relative to DMSO ([4]; 40 uM): 0.8905

Cc1cc(C)cc(OCC(=O)N/N=C/c2ccccn2)c1 [MLS000710669-01]
Burkin Assay in Myoblasts, signal relative to DMSO ([1]; 0.5 uM): 1.025
Burkin Assay in Myoblasts, signal relative to DMSO ([1]; 1 uM): 1.05
Burkin Assay in Myoblasts, signal relative to DMSO ([1]; 5 uM): 1.0722
Burkin Assay in Myoblasts, signal relative to DMSO ([1]; 10 uM): 0.9941
Burkin Assay in Myoblasts, signal relative to DMSO ([1]; 20 uM): 1.848
Burkin Assay in Myoblasts, signal relative to DMSO ([1]; 40 uM): 0.8243
Burkin Assay in Myotubes, α7 integrin LacZ reporter signal relative to DMSO ([2]; 0.5 uM): 1.045
Burkin Assay in Myotubes, α7 integrin LacZ reporter signal relative to DMSO ([2]; 1 uM): 1.163
Burkin Assay in Myotubes, α7 integrin LacZ reporter signal relative to DMSO ([2]; 5 uM): 1.054
Burkin Assay in Myotubes, α7 integrin LacZ reporter signal relative to DMSO ([2]; 10 uM): 0.9
Burkin Assay in Myotubes, α7 integrin LacZ reporter signal relative to DMSO ([2]; 20 uM): 0.9967
Burkin Assay in Myotubes, α7 integrin LacZ reporter signal relative to DMSO ([2]; 40 uM): 1.0073
CMV-LACZ in Myoblasts (β-galactosidase activity relative to DMSO) ([3]; 0.5 uM): 1.0969
CMV-LACZ in Myoblasts (β-galactosidase activity relative to DMSO) ([3]; 1 uM): 0.9975
CMV-LACZ in Myoblasts (β-galactosidase activity relative to DMSO) ([3]; 5 uM): 1.0325
CMV-LACZ in Myoblasts (β-galactosidase activity relative to DMSO) ([3]; 10 uM): 1.0823
CMV-LACZ in Myoblasts (β-galactosidase activity relative to DMSO) ([3]; 20 uM): 1.1319
CMV-LACZ in Myoblasts (β-galactosidase activity relative to DMSO) ([3]; 40 uM): 0.8778
CMV-LACZ in Myotubes, signal relative to DMSO ([4]; 0.5 uM): 0.9341
CMV-LACZ in Myotubes, signal relative to DMSO ([4]; 1 uM): 0.8881
CMV-LACZ in Myotubes, signal relative to DMSO ([4]; 5 uM): 0.9690
CMV-LACZ in Myotubes, signal relative to DMSO ([4]; 10 uM): 1.2372
CMV-LACZ in Myotubes, signal relative to DMSO ([4]; 20 uM): 0.8682
CMV-LACZ in Myotubes, signal relative to DMSO ([4]; 40 uM): 1.1824

CC1(C)Cc2ccccc2-c2nc3n(c(=O)c21)CCS3 [MLS000711491-01]
Burkin Assay in Myoblasts, signal relative to DMSO ([1]; 0.5 uM): 1.214
Burkin Assay in Myoblasts, signal relative to DMSO ([1]; 1 uM): 1.0159
Burkin Assay in Myoblasts, signal relative to DMSO ([1]; 5 uM): 1.02
Burkin Assay in Myoblasts, signal relative to DMSO ([1]; 10 uM): 1.024
Burkin Assay in Myoblasts, signal relative to DMSO ([1]; 20 uM): 0.7949
Burkin Assay in Myoblasts, signal relative to DMSO ([1]; 40 uM): 0.5793
Burkin Assay in Myotubes, α7 integrin LacZ reporter signal relative to DMSO ([2]; 0.5 uM): 1.07
Burkin Assay in Myotubes, α7 integrin LacZ reporter signal relative to DMSO ([2]; 1 uM): 1.062
Burkin Assay in Myotubes, α7 integrin LacZ reporter signal relative to DMSO ([2]; 5 uM): 0.9629
Burkin Assay in Myotubes, α7 integrin LacZ reporter signal relative to DMSO ([2]; 10 uM): 0.9462
Burkin Assay in Myotubes, α7 integrin LacZ reporter signal relative to DMSO ([2]; 20 uM): 0.671
Burkin Assay in Myotubes, α7 integrin LacZ reporter signal relative to DMSO ([2]; 40 uM): 0.579
CMV-LACZ in Myoblasts (β-galactosidase activity relative to DMSO) ([3]; 0.5 uM): 1.0889
CMV-LACZ in Myoblasts (β-galactosidase activity relative to DMSO) ([3]; 1 uM): 1.1060
CMV-LACZ in Myoblasts (β-galactosidase activity relative to DMSO) ([3]; 5 uM): 0.9088
CMV-LACZ in Myoblasts (β-galactosidase activity relative to DMSO) ([3]; 10 uM): 1.0199
CMV-LACZ in Myoblasts (β-galactosidase activity relative to DMSO) ([3]; 20 uM): 1.5063
CMV-LACZ in Myoblasts (β-galactosidase activity relative to DMSO) ([3]; 40 uM): 0.7800
CMV-LACZ in Myotubes, signal relative to DMSO ([4]; 0.5 uM): 0.9495
CMV-LACZ in Myotubes, signal relative to DMSO ([4]; 1 uM): 0.9095
CMV-LACZ in Myotubes, signal relative to DMSO ([4]; 5 uM): 0.9993
CMV-LACZ in Myotubes, signal relative to DMSO ([4]; 10 uM): 0.8645
CMV-LACZ in Myotubes, signal relative to DMSO ([4]; 20 uM): 1.1318
CMV-LACZ in Myotubes, signal relative to DMSO ([4]; 40 uM): 0.9929

CNC(=O)CSc1nnc(-c2ccc3c(c2)OCO3)n1C [MLS000717689-01]
Burkin Assay in Myoblasts, signal relative to DMSO ([1]; 0.5 uM): 1.158
Burkin Assay in Myoblasts, signal relative to DMSO ([1]; 1 uM): 1.042
Burkin Assay in Myoblasts, signal relative to DMSO ([1]; 5 uM): 1.032
Burkin Assay in Myoblasts, signal relative to DMSO ([1]; 10 uM): 1.038
Burkin Assay in Myoblasts, signal relative to DMSO ([1]; 20 uM): 0.96
Burkin Assay in Myoblasts, signal relative to DMSO ([1]; 40 uM): 0.9866
Burkin Assay in Myotubes, α7 integrin LacZ reporter signal relative to DMSO ([2]; 0.5 uM): 1.111
Burkin Assay in Myotubes, α7 integrin LacZ reporter signal relative to DMSO ([2]; 1 uM): 0.9006
Burkin Assay in Myotubes, α7 integrin LacZ reporter signal relative to DMSO ([2]; 5 uM): 1.048
Burkin Assay in Myotubes, α7 integrin LacZ reporter signal relative to DMSO ([2]; 10 uM): 1.076
Burkin Assay in Myotubes, α7 integrin LacZ reporter signal relative to DMSO ([2]; 20 uM): 0.8283
Burkin Assay in Myotubes, α7 integrin LacZ reporter signal relative to DMSO ([2]; 40 uM): 0.7135
CMV-LACZ in Myoblasts (β-galactosidase activity relative to DMSO) ([3]; 0.5 uM): 1.0125
CMV-LACZ in Myoblasts (β-galactosidase activity relative to DMSO) ([3]; 1 uM): 1.0203
CMV-LACZ in Myoblasts (β-galactosidase activity relative to DMSO) ([3]; 5 uM): 1.1129
CMV-LACZ in Myoblasts (β-galactosidase activity relative to DMSO) ([3]; 10 uM): 1.0936
CMV-LACZ in Myoblasts (β-galactosidase activity relative to DMSO) ([3]; 20 uM): 1.0407
CMV-LACZ in Myoblasts (β-galactosidase activity relative to DMSO) ([3]; 40 uM): 0.8996
CMV-LACZ in Myotubes, signal relative to DMSO ([4]; 0.5 uM): 0.8415
CMV-LACZ in Myotubes, signal relative to DMSO ([4]; 1 uM): 1.0956
CMV-LACZ in Myotubes, signal relative to DMSO ([4]; 5 uM): 0.9686
CMV-LACZ in Myotubes, signal relative to DMSO ([4]; 10 uM): 0.9569
CMV-LACZ in Myotubes, signal relative to DMSO ([4]; 20 uM): 0.9576
CMV-LACZ in Myotubes, signal relative to DMSO ([4]; 40 uM): 0.9129

— patent US9980943B2, “Methods of treating muscular dystrophy” (BOARD OF REGENTS OF THE NEVADA SYSTEM OF HIGHER EDUCATION, …, priority 2013, dated 2018)
